Results reported in patent publication US11578042B2, “3,5-diamino-6-chloro-N-(N-(4-(4-(2-(hexyl(2,3,4,5,6-pentahydroxyhexyl)amino)ethoxy)phenyl)butyl)carbamimidoyl)pyrazine-2-carboxamide” (Parion Sciences, Inc., priority 2011, dated 2023).
Values joined by “and” are separate entries in the source; they are usually repeats but may differ in a detail not shown here. Identical values can stand only once. “Also recorded” adds a separate entry of the source.

Legend:
[1] = test system: mucociliary clearance (MCC); test: Mucociliary clearance (MCC) studies in sheep; assay type: in vivo; conditions: for AUC / Initial Slope (4.0-4.5 h): Table 10, 4 mL, 4 h post-dose
Protocol: Assay 2. Mucociliary Clearance (MCC) Studies in Sheep
The animal model that has been used most often to measure changes in MCC is the sheep model.
In these studies, adult sheep were restrained and nasally intubated with an endotracheal tube. Aerosolized test articles were administered over 10^−15 minutes to sheep. Radiolabeled ^99mTc-sulfur colloid (TSC, 3.1 mg/mL; containing approximately 20 mCi) was then administered at a specified time four or eight hours after test article. The radiolabeled aerosol was administered through the endotracheal tube for about 5 minutes. The sheep were then extubated, and total radioactive counts in the lung were measured every 5 minutes for a 1-hour observation period. The rate of radiolabel clearance from the lung is representative of the MCC rate in the animal. The advantage of this system is that it closely simulates the human lung environment. The model also allows for the collection of simultaneous PK/PD information through plasma and urine sampling over the test period. There are also several techniques to measure the drug concentrations on the airway surface during the MCC measurements. These include the collection of exhaled breath condensates or a filter paper method to obtain ASL via bronchoscopy.
Test solutions were aerosolized using a Raindrop nebulizer at a flowrate of eight liters per minute and connected to a dosimetry system consisting of a solenoid valve and a source of compressed air (20 psi). […] Using a Raindrop nebulizer, radiolabeled TSC was administered over approximately 3 minutes either 4 or 8 hours after drug treatment to evaluate efficacy/durability. Radioactive counts were measured in a central region in the right lung at 5 min intervals for one hour with a gamma camera.

[2] = sheep, in vivo, iv
[3] = Plasma potassium levels in sheep of the MCC study; conditions: at effective / approximate ED50 doses
Protocol: In these studies, adult sheep were restrained and nasally intubated with an endotracheal tube. Aerosolized test articles were administered over 10^−15 minutes to sheep. Radiolabeled ^99mTc-sulfur colloid (TSC, 3.1 mg/mL; containing approximately 20 mCi) was then administered at a specified time four or eight hours after test article. The radiolabeled aerosol was administered through the endotracheal tube for about 5 minutes. The sheep were then extubated, and total radioactive counts in the lung were measured every 5 minutes for a 1-hour observation period. The rate of radiolabel clearance from the lung is representative of the MCC rate in the animal. […] The model also allows for the collection of simultaneous PK/PD information through plasma and urine sampling over the test period.

CBE cells = test: Airway hydration / surface liquid retention (in vitro CBE model); assay type: cell-based, canine; conditions: 10 μM, 50 μL applied apically, 8 hours
Protocol: Primary CBE cells are plated onto collagen-coated, porous membranes maintained at an air-liquid interface to assess maintenance of surface liquid volume over time. At the start of the experiment, each 12 mm snapwell insert was removed from the plate containing air-liquid interface culture media, blotted dry, weighed, and 50 μL of vehicle (0.1% DMSO), or ENaC blocker (10 μM in 0.1% DMSO) applied to the apical surface and the mass was recorded. The inserts were immediately returned to a transwell plate (500 μL, Krebs Ringer Bicarbonate (KRB), pH 7.4 in lower chamber) and placed in a 37° C., 5% CO2 incubator. To reduce artifact due to an apical carbohydrate osmotic gradient upon water loss, glucose was not included in the apical buffer. […] The mass of surface liquid was converted to volume in μL. Data are reported as % initial volume (100%=50 μL).
The duration of sodium transport inhibition was determined indirectly by measuring the buffer retained after a 50 μl volume of experimental buffer was added to the apical surface of CBE cells.

Log D = assay type: physicochemical
Human plasma metabolism = assay type: in vitro ADME; conditions: read-out: Human Plasma Metabolism (t½)
[4] = Human plasma protein binding; assay type: in vitro ADME
HBE cells = test: Airway surface liquid drug clearance and metabolism by human airway epithelium; conditions: 25 μL of 25 μM on apical surface of HBE, 37° C.
Excerpt: Assay 3. d. Airway Surface Liquid Drug (ASL) Clearance and Metabolism by Human Airway Epithelium

[5] = sheep MCC model, given as concentration

With N=C(NCCCCc1ccc(OCCN(C[C@H](O)[C@@H](O)[C@H](O)[C@H](O)CO)C[C@H](O)[C@@H](O)[C@H](O)[C@H](O)CO)cc1)NC(=O)c1nc(Cl)c(N)nc1N [Comparative Example 1] the ED50 ([1]; Ovis aries, sheep MCC at 8 hrs, read-out: Approximate ED50) was ~0.24 µmol/kg, the “AUC, % of maximal effect” value ([1]; Table 7, 3000 μM, 8 hrs) was “(47%)” and the “AUC, change from vehicle” value ([1]; Table 7, 3000 μM, 8 hrs) was 2.9 % CI*h. The “Max Clearance, % of maximal effect” value ([1]; Table 7, 3000 μM, 8 hrs) was “(31%)”, the “Max Clearance, change from vehicle” value ([1]; Table 7, 3000 μM, 8 hrs) was 4% and the “Slope (8-8.5 h), % of maximal effect” value ([1]; Table 7, 3000 μM, 8 hrs) was “(60%)”. The “Slope (8-8.5 h), change from vehicle” value ([1]; Table 7, 3000 μM, 8 hrs) was 6.1, the “Approximate ED50” value ([1]; sheep MCC at 8 hrs, listed as Comp. Ex. 1) was ~240 nmol/kg and the “ED50 (AUC=47%)” value [1, 5] was “approximately 3000 μM”. The “approximate ED50 dose” value [1, 5] was ~3000 µM, the “dose recovered in urine” value [2] was 43% and the “effect on plasma potassium” value [3] was “causes a rise in plasma potassium”.

With N=C(N)NC(=O)c1nc(Cl)c(N)nc1N [Amiloride, amiloride] the “surface liquid retained (% initial volume)” value (CBE cells) was 25±19.2%.

With N=C(NCCCCc1ccc(OC[C@H](N)C(N)=O)cc1)NC(=O)c1nc(Cl)c(N)nc1N [Comparative Example 4, (S)-3,5-diamino-6-chloro-N-(N-(4-(4-(2,3-diamino-3-oxopropoxy)phenyl)butyl)carbamimidoyl)pyrazine-2-carboxamide] the AUC ([1]; 11.2 μg/kg) was 6.9 ± 1.0 % CI × h, the “Initial Slope (4.0-4.5 h)” value ([1]; 11.2 μg/kg) was 14.5 ± 1.3 and the AUC ([1]; 112 μg/kg) was 14.1 ± 2.2 % CI × h. The “Initial Slope (4.0-4.5 h)” value ([1]; 112 μg/kg) was 32.2 ± 7.3, the “approximate ED50 dose” value [1, 5] was ~3000 µM and the logD (Log D) was 0.64. For the same molecule, the half-life (Human plasma metabolism) was 37 min, the fraction unbound [4] was 0.24 and the “effect on plasma potassium” value [3] was “has elevations of plasma K; also recorded: significant increase in plasma potassium levels”. The “% of Apical Mass as Metabolites (2 h)” value (HBE cells) was 83% and 83.0 ± 3.5% and the “% on Basolateral Side as Metabolites (2 h)” value (HBE cells) was 94.7 ± 1.0%.
